Measurements: the supplement of paper PMC8253809

Key:
DIPGX29 [1] = H3.3 K27M diffuse intrinsic pontine glioma line; experiment: maximal growth inhibition (yFin) relative to DMSO / staurosporine; higher = more efficacious
Method in brief: (§1)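 Viability readout was CellTiter-Glo luminescence, log2-transformed, normalised per plate to % activity between negative (solvent) and positive control wells, then pooled. This followed a 7-day exposure (3 days for iAstro) at 37 °C, 5% CO2 to a 10-point threefold dilution series (mean top concentration 35 μM), pin-tool delivered in triplicate to patient-derived pHGG/DIPG cell lines and astrocyte controls on 1% Geltrex-coated 384-well plates. Three- and four-parameter log-logistic fits were compared, and the one with the lowest AICc supplied EC50 and maximal response (yFin).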

DIPGX37 [2] = H3.3 K27M diffuse intrinsic pontine glioma line; experiment: as above
Method in brief: as §1

DIPGX7 [3] = H3.3 K27M diffuse intrinsic pontine glioma line; experiment: as above
Method in brief: as §1

DIPGX9 [4] = diffuse intrinsic pontine glioma line; experiment: as above
Method in brief: as §1

HABS [5] = astrocyte control; experiment: as above
Method in brief: as §1

HGGX2 [6] = paediatric high-grade glioma line; experiment: as above
Method in brief: as §1

HGGX39 [7] = paediatric high-grade glioma line; experiment: as above
Method in brief: as §1

HGGX42 [8] = H3.3 G34R paediatric high-grade glioma line; experiment: as above
Method in brief: as §1

HGGX6 [9] = H3.3 G34R paediatric high-grade glioma line; experiment: as above
Method in brief: as §1

SUDIPGIV [10] = diffuse intrinsic pontine glioma line; experiment: as above
Method in brief: as §1

SUDIPGVI = diffuse intrinsic pontine glioma line; experiment: as above
Method in brief: as §1

SUDIPGXIII [11] = diffuse intrinsic pontine glioma line; experiment: as above
Method in brief: as §1

SUDIPGXIX [12] = diffuse intrinsic pontine glioma line; experiment: as above
Method in brief: as §1

SUDIPGXVII [13] = diffuse intrinsic pontine glioma line; experiment: as above
Method in brief: as §1

SUDIPGXXI [14] = diffuse intrinsic pontine glioma line; experiment: as above
Method in brief: as §1

iAstro = astrocyte control; experiment: as above
Method in brief: as §1

DIPGX29 [15] = experiment: area under dose-response curve of % growth inhibition (log2 RLU vs DMSO / staurosporine), 1e-11 to 1e-4 M (% x log10 M); higher = more growth inhibition
Method in brief: (§2)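 Patient-derived pHGG/DIPG cell lines and astrocytes, cultured on 384-well plates with a 1% Geltrex coating, were given a 10-point threefold dilution series (mean top concentration 35 μM) in triplicate for 7 days (iAstro 3 days) at 37 °C, 5% CO2. CellTiter-Glo signal, log2-transformed and normalised per plate to % activity against solvent and positive controls, was fitted with a log-logistic curve or, where the sigmoid fit failed, a smoothing spline. Area under the curve was then computed by the trapezoid rule.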

DIPGX37 [16] = experiment: as above
Method in brief: as §2

DIPGX7 [17] = experiment: as above
Method in brief: as §2

DIPGX9 [18] = experiment: as above
Method in brief: as §2

HABS [19] = experiment: as above
Method in brief: as §2

HGGX2 [20] = experiment: as above
Method in brief: as §2

HGGX39 [21] = experiment: as above
Method in brief: as §2

HGGX42 [22] = experiment: as above
Method in brief: as §2

HGGX6 [23] = experiment: as above
Method in brief: as §2

SUDIPGIV [24] = experiment: as above
Method in brief: as §2

SUDIPGXIII [25] = experiment: as above
Method in brief: as §2

SUDIPGXIX [26] = experiment: as above
Method in brief: as §2

SUDIPGXVII [27] = experiment: as above
Method in brief: as §2

SUDIPGXXI [28] = experiment: as above
Method in brief: as §2

`CN(C)C/C=C/C(=O)Nc1ccc(C(=O)Nc2cccc(Nc3ncc(Cl)c(-c4c[nH]c5ccccc45)n3)c2)cc1` [THZ1] was tested, and the maximal growth inhibition (DIPGX29 [1]) was 87.4%, the maximal growth inhibition (DIPGX37 [2]) was 81.3% and the maximal growth inhibition (DIPGX7 [3]) was 88.6%. It also gave a maximal growth inhibition (DIPGX9 [4]) of 88.7%, a maximal growth inhibition (HABS [5]) of 100% and a maximal growth inhibition (HGGX2 [6]) of 97.5%. It also gave a maximal growth inhibition (HGGX39 [7]) of 86.2%, a maximal growth inhibition (HGGX42 [8]) of 110% and a maximal growth inhibition (HGGX6 [9]) of 81.5%. For the same compound, the maximal growth inhibition (SUDIPGIV [10]) was 87.4%, the maximal growth inhibition (SUDIPGVI) was 85.3% and the maximal growth inhibition (SUDIPGXIII [11]) was 85%. It also gave a maximal growth inhibition (SUDIPGXIX [12]) of 84.4%, a maximal growth inhibition (SUDIPGXVII [13]) of 87.2% and a maximal growth inhibition (SUDIPGXXI [14]) of 107%. For the same compound, the maximal growth inhibition (iAstro) was 99.1%, the “area under dose-response curve” value (DIPGX29 [15]) was 301 and the “area under dose-response curve” value (DIPGX37 [16]) was 302. The “area under dose-response curve” value (DIPGX7 [17]) was 356, the “area under dose-response curve” value (DIPGX9 [18]) was 372 and the “area under dose-response curve” value (HABS [19]) was 284. The “area under dose-response curve” value (HGGX2 [20]) was 349, the “area under dose-response curve” value (HGGX39 [21]) was 272 and the “area under dose-response curve” value (HGGX42 [22]) was 360. The “area under dose-response curve” value (HGGX6 [23]) was 267, the “area under dose-response curve” value (SUDIPGIV [24]) was 342 and the “area under dose-response curve” value (SUDIPGXIII [25]) was 308. For the same compound, the “area under dose-response curve” value (SUDIPGXIX [26]) was 343, the “area under dose-response curve” value (SUDIPGXVII [27]) was 329 and the “area under dose-response curve” value (SUDIPGXXI [28]) was 460.
